Values of other authors in patent US20040072789A1, “Veterinary composition for the topical treatment of traumatized or inflamed skin” (priority 2000, published 2004).

Test system: fungal infections of the skin

COC1=CC(=O)C[C@@H](C)[C@]12Oc1c(Cl)c(OC)cc(OC)c1C2=O [griseofulvin]
effect of topical administration on fungal infections of the skin: very limited effect
